Structures are written as SMILES. Counter-ions that a name gives are not always drawn.

For one series, the system named is D2-like (REA). Briefly: D2-like activity in the Rabbit Ear Artery (REA) test, isolated arterial rings. Also noted: species or system Male New Zealand rabbits. The note with it: agonist activity; electrically stimulated ear artery rings (10 Hz, 1 msec, 40-80 mA); compounds cumulatively administered. The method, then:
Arterial rings were prepared according to the method described by […] al., Science, 1978, 443 199, modified as follows. Male New Zealand rabbits weighing 2.5-3 Kg were sacrificed by intravenous injection of an excess of pentobarbital sodium and exsanguinated. The two ears were taken away and the central ear artery was dissected into 3 mm long rings. These preparations were set up in a 25 ml organ bath containing Krebs solution (mM/l): NaCl 118, KCl 4.7, CaCl2 2.5, MgSO4 1.2, NaHCO3 25, KH2PO4 1.2, glucose 11.1, equilibrated with 95% O2-5% CO2 and maintained at 35±1°C. Krebs solution was medicated with EDTA (10 μM) to prevent cathecolamine oxydation, desipramine (0.1 μM) and corticosterone (30 μM), to block neuronal and extraneuronal cathecolamine uptake. The preparations were electrically stimulated (10 Hz, 1 msec, 40-80 mA, 500 msec duration) at 5 minutes intervals. The tested compounds were cumulatively administered. Dopamine and dopexamine were used as reference substances.

For another series, the system named is D1-like (RSA). Briefly: D1-like activity in the Rabbit Splenic Artery (RSA) test, isolated arterial rings. The settings on record: agonist activity; arterial preparations contracted with U46619 0.1 µM; compounds cumulatively administered. The method, then: Arterial rings were prepared according to Semeraro et al., Naunyn. Schmied. Arch. Pharmacol., 1990, 342 539. […] The tested compounds were cumulatively administered. Dopamine and dopexamine were used as reference substances.

The target of the next series is T1, D1 receptor (Rattus norvegicus, UniProt P18901).
T1 construct: from tissue; host or cells: rat brain striatum membranes
Briefly: biochemical. The settings on record: rat striated membranes; 0.2 nM [3H]-SCH23390; 37°C for 20 minutes; read-out: Affinity [K1 (nM)] D1 [^3H]-SCH23390. Type of series: binding.

For the next series, the target named is T2, D2 receptor (Rattus norvegicus, UniProt P61169).
T2 construct: from tissue; host or cells: rat brain striatum membranes
The experiment in a line: biochemical. Type of series: binding. The note with it: rat striated membranes; [3H]-domperidone 0.3 nM; BSA 0.01%; 37°C for 30 minutes; read-out: Affinity [K1 (nM)] D2 [^3H]-domperidone. As to the method: The tissue were homogenized in 50 mM Tris/HCl buffer at pH 7.4 (1:100 w/v).
The homogenate was centrifuged and the pellet resuspended, recentrifuged and resuspended again in 50 mM Tris/HCl buffer at pH 7.4 containing 120 mM NaCl, 5mM KCl, 2 mM CaCl2 and 1 mM MgCl2.
Furthermore, bovine serum albumine (BSA) (0.01%) was added.
The mixture was incubated at 37°C for 30 minutes for each concentration of tested compounds.

The conditions of series [1]: Fitton and Benfield, Drugs, 39(2), 308-330 (1990); cited from earlier work.

T1 sequence (P18901 whole entry): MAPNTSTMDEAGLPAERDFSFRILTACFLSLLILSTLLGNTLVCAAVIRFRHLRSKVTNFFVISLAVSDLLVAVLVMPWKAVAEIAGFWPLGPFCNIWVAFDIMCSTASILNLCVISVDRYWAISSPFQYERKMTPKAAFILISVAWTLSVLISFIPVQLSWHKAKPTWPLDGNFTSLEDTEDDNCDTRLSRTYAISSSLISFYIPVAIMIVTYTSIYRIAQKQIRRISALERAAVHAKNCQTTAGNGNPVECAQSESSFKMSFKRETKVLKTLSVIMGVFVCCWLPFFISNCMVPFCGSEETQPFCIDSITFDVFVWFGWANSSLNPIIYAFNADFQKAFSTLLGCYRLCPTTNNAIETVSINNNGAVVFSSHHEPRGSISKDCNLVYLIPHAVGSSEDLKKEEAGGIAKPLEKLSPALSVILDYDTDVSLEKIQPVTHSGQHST
T2 sequence (P61169 whole entry): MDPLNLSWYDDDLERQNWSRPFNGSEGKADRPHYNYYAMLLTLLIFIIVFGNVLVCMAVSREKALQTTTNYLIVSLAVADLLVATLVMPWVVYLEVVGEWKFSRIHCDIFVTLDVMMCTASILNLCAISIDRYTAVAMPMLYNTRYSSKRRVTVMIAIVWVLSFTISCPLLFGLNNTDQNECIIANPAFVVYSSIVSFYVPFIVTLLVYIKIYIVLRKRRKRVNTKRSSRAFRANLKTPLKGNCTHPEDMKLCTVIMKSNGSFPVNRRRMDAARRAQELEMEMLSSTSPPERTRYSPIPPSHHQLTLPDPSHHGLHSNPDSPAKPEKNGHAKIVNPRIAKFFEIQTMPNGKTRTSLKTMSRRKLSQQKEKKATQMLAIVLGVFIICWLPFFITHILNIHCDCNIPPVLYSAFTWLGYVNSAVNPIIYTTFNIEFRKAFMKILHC
Protocol for D1 receptor: The conditions of standard incubation (volume 1000 µl) for the test in which [^3H]-SCH23390 was used were the following: 50 mM Tris/HCl buffer (pH.7.4), 0.2 nM [^3H]-SCH23390, a membrane preparation of 130-140 µg proteins/ml.
The mixture was incubated with different concentrations of the tested compounds at 37°C for 20 minutes, filtered under vacuum through Whatman GF/C filters and then washed 4 times with 5 ml of 50 mM Tris/HCl buffer (pH 7.4) cooled with ice.

As to `Br.Br.CCCN(CCCCCCNCCc1cccc(O)c1)[C@H]1CCc2c(ccc(O)c2O)C1` [Compound 1, (S)-N-propyl-N-[6-[2-(3-hydroxyphenyl)ethylamino)-hexyl]-5,6-dihydroxy-1,2,3,4-tetrahydro-2-naphthylamine dihydrobromide], the “D2-like (REA) pD2” value with D2-like (REA) stood at 8.8. In addition, in the series on D1-like (RSA), the “D1-like (RSA) pD2” value is recorded as 8.1. Also, the results for the Ki at D1 receptor and at D2 receptor were 21 nM and 0.5 nM, respectively.
The corresponding values for `Br.Br.CCCN(CCCCCCNCCc1ccc(O)cc1)[C@H]1CCc2c(ccc(O)c2O)C1` [Compound 2, (S)-N-propyl-N-[6-[2-(4-hydroxyphenyl)ethylamino)hexyl]-5,6-dihydroxy-1,2,3,4-tetrahydro-2-naphthylamine dihydrobromide] are 8.8, 8.4, 10 nM and 0.2 nM.
As to `CCCN(CCCCCCCCNCCc1ccc(O)c(O)c1)[C@H]1CCc2c(ccc(O)c2O)C1` [Compound 7, dihydrobromide], the results for the Ki at D1 receptor and on D2 receptor were 27 nM and 0.5 nM, respectively.
Turning to `CCCN(CCCCNCCc1ccccc1)[C@H]1CCc2c(ccc(O)c2O)C1` [Compound 8, (S)-N-propyl-N-[4-(2-phenyletylamino)butyl]-5,6-dihydroxy-1,2,3,4--tetrahydro-2-naphthylamine dihydrobromide], the “D2-like (REA) pD2” value in the series on D2-like (REA) came to 8.2. Further, the “D1-like (RSA) pD2” value with D1-like (RSA) is given as 6.4. Further, the Ki on D1 receptor came to 361 nM; on D2 receptor it was 1 nM.
In the case of `CCCN(CCCCCCN(CCC)[C@H]1CCc2c(ccc(O)c2O)C1)CCc1ccc(O)cc1` [Compound 18, (S)-N-propyl-N-[2-(4-hydroxyphenyl)ethyl]-N'-propyl-N'-[2-(5,6-dihydroxy-1,2,3,4-tetrahydro)naphthyl]-1,6-hexandiamine dihydrobromide], the “D2-like (REA) pD2” value with D2-like (REA) amounted to 9.2. Besides, in the series on D1-like (RSA), the “D1-like (RSA) pD2” value is 6.6. The Ki was found to be 107 nM at D1 receptor and 0.9 nM on D2 receptor.
For the compound `CCCN(CCCCCCN(C)CCc1ccccc1)[C@H]1CCc2c(ccc(O)c2O)C1` [Compound 5, (S)-N-methyl-N-(2-phenylethyl)-N'-propyl-N'-[2-(5,6-dihydroxy-1,2,3,4-tetrahydro)naphthyl]-1.6-hexandiamine dihydrobromide], the Ki turned out to be 69 nM on D1 receptor and 0.3 nM at D2 receptor.
As for `CCCN(CCCCCCNCCCc1ccccc1)[C@H]1CCc2c(ccc(O)c2O)C1` [Compound 12, (S)-N-propyl-N-[6-(3-phenylpropylamino)hexyl]-5,6-dihydroxy-1,2,3,4--tetrahydro-2-naphthylamine dihydrochloride], the “D2-like (REA) pD2” value in the series with D2-like (REA) is reported as 8.6. In the series on D1-like (RSA), the “D1-like (RSA) pD2” value was 7.1.
Take `Br.Br.CCCN(CCCCCCNCCc1ccc(O)c(O)c1)[C@@H]1CCc2cc(O)c(O)cc2C1` [Compound 13, (R)-N-propyl-N-[6-[2-(3,4-dihydroxyphenyl)ethylamino]hexyl]-6,7-dihydroxy-1,2,3,4-tetrahydro-2-naphthylamine dihydrobromide]: the “D2-like (REA) pD2” value in the series with D2-like (REA) is 9.4. Also, the “D1-like (RSA) pD2” value in the series on D1-like (RSA) is reported as 7.7. Also, the results for the Ki on D1 receptor and at D2 receptor were 43 nM and 0.8 nM, respectively.
Take `Br.Br.CCCN(CCCCCCNCCc1ccc(O)c(O)c1)[C@H]1CCc2c(O)cccc2C1` [Compound 6, (S)-N-propyl-N-[6-[2-(3,4-dihydroxyphenyl)ethylamino]hexyl]-5-hydroxy-1,2,3,4-tetrahydro-2-naphthylamine dihydrobromide]: in the series with D2-like (REA), the “D2-like (REA) pD2” value was found to be 9.6. The “D1-like (RSA) pD2” value in the series with D1-like (RSA) is reported as 7.5.
Take `CCCN(CCCCCCNCCc1ccccc1)[C@H]1CCc2cc(O)c(O)cc2C1` [Compound 11, (S)-N-propyl-N-[6-(2-phenylethylamino)hexyl]-6,7-dihydroxy-1,2,3,4--tetrahydro-2-naphthylamine dihydrochloride]: in the series on D2-like (REA), the “D2-like (REA) pD2” value amounted to 8.4. Besides, the “D1-like (RSA) pD2” value with D1-like (RSA) is given as 6.2. For the same compound, the Ki amounted to 89 nM on D1 receptor and 0.5 nM at D2 receptor.
For the compound `Br.Br.CCCN(CCCCCCNCCc1ccc(O)cc1)[C@@H]1CCc2cc(O)c(O)cc2C1` [Compound 14, (R)-N-propyl-N-[6-[2-(4-hydroxyphenyl)ethylamino]hexyl]-6,7-dihydroxy-1,2,3,4-tetrahydro-2-naphthylamine dihydrobromide], in the series with D2-like (REA), the “D2-like (REA) pD2” value amounted to 9.9. Besides, in the series with D1-like (RSA), the “D1-like (RSA) pD2” value was 7.9.
Turning to `Oc1ccc(CCNCCCCCCNCCc2ccccc2)cc1O` [Dopexamine, dopexamine, reference compound], the “absorption when administered by oral route” value in series [1] is “not absorbed”. Moreover, the “D2-like (REA) pD2” value in the series with D2-like (REA) is given as 6.3. The “D1-like (RSA) pD2” value with D1-like (RSA) is listed as 6.1. Moreover, the Ki on D2 receptor was found to be 1220 nM.
With `Br.Br.CCCN(CCCCCCNCCc1ccc(O)c(O)c1)[C@H]1CCc2c(ccc(O)c2O)C1` [Compound 3, (S)-N-propyl-N-[6-[2-(3,4-dihydroxyphenyl)ethylamino)hexyl]-5,6-dihydroxy-1,2,3,4-tetrahydro-2-naphthylamine dihydrobromide], the “D2-like (REA) pD2” value in the series with D2-like (REA) came out at 9.5. The “D1-like (RSA) pD2” value with D1-like (RSA) came out at 8.1. Besides, the Ki was 21 nM at D1 receptor and 0.5 nM on D2 receptor.
In the case of `Br.Br.CCCN(CCCCCCNCCc1ccc(O)cc1)[C@H]1CCc2c(O)cccc2C1` [Compound 9, (S)-N-propyl-N-[6-[2-(4-hydroxyphenyl)ethylamino]hexyl]-5-hydroxy-1,2,3,4-tetrahydro-2-naphthylamine dihydrobromide], the “D2-like (REA) pD2” value with D2-like (REA) was determined as 9.1.
As for `Br.Br.CCCN(CCCCCCNCCc1ccccc1O)[C@H]1CCc2c(ccc(O)c2O)C1` [Compound 15, (S)-N-propyl-N-[6-[2-(2-hydroxyphenyl)ethylamino]hexyl]-5,6-dihydroxy-1,2,3,4-tetrahydro-2-naphthylamine dihydrobromide], in the series on D2-like (REA), the “D2-like (REA) pD2” value came out at 9.2. Further, in the series on D1-like (RSA), the “D1-like (RSA) pD2” value turned out to be 7.3. Moreover, the Ki on D1 receptor was 33 nM; on D2 receptor, 0.4 nM.
Regarding `Br.Br.CCCN(CCCCCCNCCc1cc(O)cc(O)c1)[C@H]1CCc2c(ccc(O)c2O)C1` [Compound 4, (S)-N-propyl-N-[6-[2-(3,5-dihydroxyphenyl)ethylamino)hexyl]-5,6-dihydroxy-1,2,3,4-tetrahydro-2-naphthylamine dihydrobromide], in the series with D2-like (REA), the “D2-like (REA) pD2” value is 10.6. For the same compound, in the series with D1-like (RSA), the “D1-like (RSA) pD2” value is 8.5. In addition, the Ki amounted to 33 nM at D1 receptor and 0.1 nM on D2 receptor.
In the same order, the values of `CCCN(CCCCCCNCCc1ccccc1)[C@H]1CCc2c(ccc(O)c2O)C1.Cl.Cl` [Compound 10, (S)-N-propyl-N-[6-(2-phenylethylamino)hexyl]-5,6-dihydroxy-1,2,3,4-tetrahydro-2-naphthylamine dihydrochloride] are 9.2, 7.2, 40 nM and 0.1 nM.
Regarding `NCCc1ccc(O)c(O)c1` [Dopamine, reference compound], the “absorption when administered by oral route” value in series [1] is on record as “not absorbed”. In addition, in the series on D2-like (REA), the “D2-like (REA) pD2” value worked out at 7.8. In addition, the “D1-like (RSA) pD2” value with D1-like (RSA) turned out to be 6.4.

The record behind these values is patent publication EP0781268B1, “DERIVATIVES OF 2-AMINO-1,2,3,4-TETRAHYDRONAPHTHALENE ACTIVE ON THE CARDIOVASCULAR SYSTEM” (ZAMBON GROUP S.p.A., priority 1994, dated 1996).
